Data as given in PMC8073005, “Antifungal Activity and DNA Topoisomerase Inhibition of Hydrolysable Tannins from Punica granatum L” (International Journal of Molecular Sciences, 2021).
Converted amounts (≈) assume the structure as drawn. “And” between values parts separate entries of the source, which are not always exact repeats. Identical values can stand only once. Like-named read-outs stand apart in the source and are kept apart here.

Experiments:
Candida parapsilosis = experiment: MIC, broth microdilution (human pathogens); assay type: cell-based; details: Lodderomyces parapsilosis; Candida parapsilosis; SDB, 30 °C, 48 h; read-out: Minimum inhibitory concentration (MIC)
[1] = tested on: Cryptococcus var. grubii H99 serotype A; experiment: MIC, broth microdilution (human pathogens); assay type: cell-based; details: Cryptococcus var. grubii H99 serotype A; SDB, 30 °C, 48 h; read-out: Minimum inhibitory concentration (MIC)
Candida albicans 2 = experiment: MIC, broth microdilution (human pathogens); assay type: cell-based; details: Candida albicans 2; SDB, 30 °C, 48 h; read-out: Minimum inhibitory concentration (MIC)
Candida albicans 44 = experiment: MIC, broth microdilution (human pathogens); assay type: cell-based; details: Candida albicans 44; SDB, 30 °C, 48 h; read-out: Minimum inhibitory concentration (MIC)
Candida parapsilosis 7 = experiment: MIC, broth microdilution (human pathogens); assay type: cell-based; details: Lodderomyces parapsilosis; Candida parapsilosis 7; SDB, 30 °C, 48 h; read-out: Minimum inhibitory concentration (MIC)
Candida albicans SC 5314 = experiment: MIC, broth microdilution (human pathogens); assay type: cell-based; details: SC5314; Candida albicans SC 5314; SDB, 30 °C, 48 h; read-out: Minimum inhibitory concentration (MIC)
[2] = tested on: Cryptococcus neoformans ATCC 11240; experiment: MIC, broth microdilution (human pathogens); assay type: cell-based; details: ATCC11240; Cryptococcus neoformans ATCC 11240; SDB, 30 °C, 48 h; read-out: Minimum inhibitory concentration (MIC)
[3] = tested on: Cryptococcus neoformans B 3501; experiment: MIC, broth microdilution (human pathogens); assay type: cell-based; details: B3501; Cryptococcus neoformans B 3501; SDB, 30 °C, 48 h; read-out: Minimum inhibitory concentration (MIC)
Aspergillus candidus 3 = experiment: MIC, broth microdilution (human pathogens); assay type: cell-based; details: Aspergillus candidus 3; SDB, 30 °C, 48 h; read-out: Minimum inhibitory concentration (MIC)
Candida zeylanoides 33 = experiment: MIC, broth microdilution (human pathogens); assay type: cell-based; details: Dujonia zeylanoides; Candida zeylanoides 33; SDB, 30 °C, 48 h; read-out: Minimum inhibitory concentration (MIC)
Candida albicans 1 = experiment: MIC, broth microdilution (human pathogens); assay type: cell-based; details: Candida albicans 1; SDB, 30 °C, 48 h; read-out: Minimum inhibitory concentration (MIC)
Cryptococcus 67 = experiment: MIC, broth microdilution (human pathogens); assay type: cell-based; details: Cryptococcus 67; SDB, 30 °C, 48 h; read-out: Minimum inhibitory concentration (MIC)
Candida albicans 41 = experiment: MIC, broth microdilution (human pathogens); assay type: cell-based; details: Candida albicans 41; SDB, 30 °C, 48 h; read-out: Minimum inhibitory concentration (MIC)
Candida strains = experiment: Agar Disk Diffusion Assay, Candida strains; assay type: cell-based; details: for share of Candida strains with inhibition zone from 21 to 30 mm: 25 μg; for zone of inhibition at 25 µg/disc: positive controls, for the stated share of Candida strains
[4] = tested on: Candida albicans ATCC 10321; experiment: MIC, broth microdilution (human pathogens); assay type: cell-based; details: ATCC10321; Candida albicans ATCC 10321; SDB, 30 °C, 48 h; read-out: Minimum inhibitory concentration (MIC)
Candida albicans H = experiment: MIC, broth microdilution (human pathogens); assay type: cell-based; details: Candida albicans H; SDB, 30 °C, 48 h; read-out: Minimum inhibitory concentration (MIC)
Candida albicans 40 = experiment: MIC, broth microdilution (human pathogens); assay type: cell-based; details: Candida albicans 40; SDB, 30 °C, 48 h; read-out: Minimum inhibitory concentration (MIC)
[5] = tested on: Saccharomyces cerevisiae 42; experiment: MIC, broth microdilution (human pathogens); assay type: cell-based; details: Saccharomyces cerevisiae 42; SDB, 30 °C, 48 h; read-out: Minimum inhibitory concentration (MIC)
Aspergillus candidus 25 = experiment: MIC, broth microdilution (human pathogens); assay type: cell-based; details: Aspergillus candidus 25; SDB, 30 °C, 48 h; read-out: Minimum inhibitory concentration (MIC)
[6] = tested on: Aspergillus brasiliensis ATCC 16404; experiment: MIC, broth microdilution (human pathogens); assay type: cell-based; details: ATCC16404; Aspergillus brasiliensis ATCC 16404; SDB, 30 °C, 48 h; read-out: Minimum inhibitory concentration (MIC)
[7] = molecular target: T1, topoisomerase I from Candida albicans (Candida albicans, UniProt Q00313); experiment: Topoisomerase I supercoiled DNA relaxation inhibition; assay type: biochemical
T1 sequence (Q00313 1-778): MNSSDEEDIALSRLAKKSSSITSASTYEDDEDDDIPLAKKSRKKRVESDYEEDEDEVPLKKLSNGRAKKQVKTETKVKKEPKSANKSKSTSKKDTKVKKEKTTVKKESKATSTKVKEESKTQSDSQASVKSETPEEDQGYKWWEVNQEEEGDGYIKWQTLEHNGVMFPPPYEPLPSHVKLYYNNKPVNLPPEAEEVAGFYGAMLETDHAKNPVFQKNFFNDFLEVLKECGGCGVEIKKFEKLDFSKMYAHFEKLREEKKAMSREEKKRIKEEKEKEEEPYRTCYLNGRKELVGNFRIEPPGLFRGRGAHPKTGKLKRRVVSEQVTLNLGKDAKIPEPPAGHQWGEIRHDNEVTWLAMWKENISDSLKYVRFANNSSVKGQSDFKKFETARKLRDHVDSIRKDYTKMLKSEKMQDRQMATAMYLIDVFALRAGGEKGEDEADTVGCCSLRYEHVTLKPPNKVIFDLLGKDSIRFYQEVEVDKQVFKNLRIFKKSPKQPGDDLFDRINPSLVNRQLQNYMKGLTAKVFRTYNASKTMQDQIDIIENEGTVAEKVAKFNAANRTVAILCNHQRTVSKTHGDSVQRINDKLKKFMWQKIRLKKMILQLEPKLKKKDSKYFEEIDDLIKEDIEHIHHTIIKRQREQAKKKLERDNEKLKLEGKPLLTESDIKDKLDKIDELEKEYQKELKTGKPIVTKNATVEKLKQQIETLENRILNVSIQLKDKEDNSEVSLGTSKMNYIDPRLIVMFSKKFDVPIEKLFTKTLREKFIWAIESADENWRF

[8] = tested on: Alternaria alternata AL19; experiment: MIC, micro-spectrophotometric growth assay (phytopathogens); assay type: cell-based; details: Alternaria alternata AL19; PDB, 24 °C, dark; imazalil at label dose; read-out: Minimum inhibitory concentration (MIC)
Botrytis cinerea B2 = experiment: as above; assay type: cell-based; details: Botrytis cinerea B2; PDB, 24 °C, dark; imazalil at label dose; read-out: Minimum inhibitory concentration (MIC)
[9] = tested on: Colletotrichum acutatum s.s. M146-2; experiment: as above; assay type: cell-based, Colletotrichum acutatum sensu stricto; details: Colletotrichum acutatum s.s. M146-2, PDB, 24 °C, dark, imazalil at label dose, read-out: Minimum inhibitory concentration (MIC)
Coniella granati M0_C2 = experiment: as above; assay type: cell-based; details: Coniella granati M0_C2; PDB, 24 °C, dark; imazalil at label dose; read-out: Minimum inhibitory concentration (MIC)
[10] = tested on: other genera tested (other fungi strains); experiment: Agar Disk Diffusion Assay, other genera; assay type: cell-based; details: 100 µg
Description: The antifungal activity of pomegranate compounds was evaluated against 19 clinically isolated fungal strains, including nine belonging to Candida albicans species, two belonging to Aspergillus genus, one belonging to Cryptococcus genus, and one Saccharomyces cerevisiae. The C. albicans strains were isolated on CHROMID agar, Aspergillus and Cryptococcus genus were isolated on SDA-CAF and one Saccharomyces cerevisiae on SDA. All the isolates were confirmed by matrix-assisted laser desorption ionization (MALDI) time-of-flight mass spectrometry (TOF/MS). Strains from the American Type Culture Collection (ATCC) were included. All strains were maintained in SDB with 20% (w/v) glycerol at −80 °C until use and sub-cultured in SDA before each test.
The preliminary determination of the antifungal activity of the target compounds (punicalagin, punicalin, ellagic acid, and gallic acid) from pomegranate was carried out by means of the agar disk diffusion assay, according to the standard procedure of the Clinical and Laboratory Standards Institute, with slight modifications. Plates containing SDA were uniformly spread with 100 μL of 10^3 conidia/mL of each strain suspension. […] Disks containing fluconazole (25 μg), amphotericin B (25 μg) and DMSO (20 μL) were used as the positive and the negative control, respectively. The antifungal activity of pomegranate compounds was evaluated by measuring the diameter of the clear inhibition zone formed right around the disks after 48 h incubation at 30 ± 1 °C. The experiment was carried out in triplicate.

Row | Structure (SMILES) | MIC (Candida parapsilosis) | MIC [1] | MIC (Candida albicans 2) | MIC (Candida albicans 44) | MIC (Candida parapsilosis 7) | MIC (Candida albicans SC 5314) | MIC [2] | MIC [3] | MIC (Aspergillus candidus 3) | MIC (Candida zeylanoides 33) | MIC (Candida albicans 1) | MIC (Cryptococcus 67) | MIC (Candida albicans 41) | share of Candida strains with inhibition zone from 21 to 30 mm (Candida strains) | MIC [4] | MIC (Candida albicans H) | MIC (Candida albicans 40) | MIC [5] | MIC (Aspergillus candidus 25) | MIC [6] | other results
1 | C[C@@H]1[C@H](O)[C@@H](C)/C=C/C=C/C=C/C=C/C=C/C=C/C=C/[C@H](O[C@@H]2O[C@H](C)[C@@H](O)[C@H](N)[C@@H]2O)C[C@@H]2O[C@](O)(C[C@@H](O)C[C@@H](O)[C@H](O)CC[C@@H](O)C[C@@H](O)CC(=O)O[C@H]1C)C[C@H](O)[C@H]2C(=O)O [Amphotericin B, amphotericin B, reference compound] | 0.1 µM (≈ 0.0924 µg/mL) | 0.1 µM (≈ 0.0924 µg/mL) | 4.3 µM (≈ 3.97 µg/mL) | 2.2 µM (≈ 2.03 µg/mL) | 0.3 µM (≈ 0.277 µg/mL) | 0.1 µM (≈ 0.0924 µg/mL) | 0.1 µM (≈ 0.0924 µg/mL) | 0.1 µM (≈ 0.0924 µg/mL) | 0.3 µM (≈ 0.277 µg/mL) | 0.1 µM (≈ 0.0924 µg/mL) | 2.2 µM (≈ 2.03 µg/mL) | 0.1 µM (≈ 0.0924 µg/mL) | 0.3 µM (≈ 0.277 µg/mL) | 46% | 0.1 µM (≈ 0.0924 µg/mL) | 4.3 µM (≈ 3.97 µg/mL) | 0.3 µM (≈ 0.277 µg/mL) | 1.1 µM (≈ 1.02 µg/mL) | 0.3 µM (≈ 0.277 µg/mL) | 0.1 µM (≈ 0.0924 µg/mL) | zone of inhibition at 25 µg/disc (Candida strains): 21 to 30 mm
2 | CC[C@@]1(O)C(=O)OCc2c1cc1n(c2=O)Cc2cc3ccccc3nc2-1 [Camptothecin, camptothecin, reference compound] |  |  |  |  |  |  |  |  |  |  |  |  |  |  |  |  |  |  |  |  | IC50 [7]: 17.8 ± 0.7 µM
3 | OC(Cn1cncn1)(Cn1cncn1)c1ccc(F)cc1F [Fluconazole, fluconazole, reference compound] | 9.8 µM (≈ 3 µg/mL) | 4.9 µM (≈ 1.5 µg/mL) | 163 µM (≈ 50 µg/mL) | 81.6 µM (≈ 25 µg/mL) | 19.6 µM (≈ 6 µg/mL) | 9.8 µM (≈ 3 µg/mL) | 4.9 µM (≈ 1.5 µg/mL) | 4.9 µM (≈ 1.5 µg/mL) | 9.8 µM (≈ 3 µg/mL) | 19.6 µM (≈ 6 µg/mL) | 81.6 µM (≈ 25 µg/mL) | 9.8 µM (≈ 3 µg/mL) | 81.6 µM (≈ 25 µg/mL) | 73% | 40.8 µM (≈ 12.5 µg/mL) | 81.6 µM (≈ 25 µg/mL) | 163 µM (≈ 50 µg/mL) | 4.9 µM (≈ 1.5 µg/mL) | 9.8 µM (≈ 3 µg/mL) | 4.9 µM (≈ 1.5 µg/mL) | zone of inhibition at 25 µg/disc (Candida strains): 21 to 30 mm
4 | O=C(O)c1cc(O)c(O)c(O)c1 [Gallic Acid, gallic acid] | 294 µM (≈ 50 µg/mL) | 4.4 µM (≈ 0.749 µg/mL) | 294 µM (≈ 50 µg/mL) | 294 µM (≈ 50 µg/mL) | 588 µM (≈ 100 µg/mL) | 294 µM (≈ 50 µg/mL) | 4.4 µM (≈ 0.749 µg/mL) | 4.4 µM (≈ 0.749 µg/mL) | 17.6 µM (≈ 2.99 µg/mL) | 588 µM (≈ 100 µg/mL) | 294 µM (≈ 50 µg/mL) | 8.8 µM (≈ 1.5 µg/mL) | 294 µM (≈ 50 µg/mL) |  | 294 µM (≈ 50 µg/mL) | 588 µM (≈ 100 µg/mL) | 588 µM (≈ 100 µg/mL) | 588 µM (≈ 100 µg/mL) | 17.6 µM (≈ 2.99 µg/mL) | 8.8 µM (≈ 1.5 µg/mL) | MIC [8]: 587.8 µM and 588 µM; MIC (Botrytis cinerea B2): 587.8 µM and 588 µM; MIC [9]: 587.8 µM (≈ 100 µg/mL); MIC ([9]; S.S.M1462): 588 µM (≈ 100 µg/mL); MIC (Coniella granati M0_C2): 587.8 µM and 588 µM; share of other fungi strains with inhibition zone from 11 to 20 mm [10]: 25%; share of Candida strains with inhibition zone from 11 to 20 mm (Candida strains; 100 µg): 73%
5 | C=CCOC(Cn1ccnc1)c1ccc(Cl)cc1Cl (stereo not shown) [Imazalil, imazalil, reference compound] |  |  |  |  |  |  |  |  |  |  |  |  |  |  |  |  |  |  |  |  | MIC [8]: 0.3 µM (≈ 0.0892 µg/mL); MIC (Botrytis cinerea B2): 0.3 µM (≈ 0.0892 µg/mL); MIC ([9]; S.S.M1462): 0.3 µM (≈ 0.0892 µg/mL); MIC (Coniella granati M0_C2): 0.3 µM (≈ 0.0892 µg/mL)
